Assay results from BindingDB's records for doi:10.1111/j.1747-0285.2008.00638.x (Mcgill University/Royal Victoria Hospital, 2008).
pIC50: −log10 of the molar value.

Molecular target: Epidermal growth factor receptor (Homo sapiens, UniProt P00533)
Test: Kinase Enzyme Assay
Conditions: 37 °C
Description: EGFR kinase assay was perform using Nunc MaxiSorp purchased from Nalge Nunc Interantional.

Epidermal growth factor receptor, sequence (P00533 whole entry): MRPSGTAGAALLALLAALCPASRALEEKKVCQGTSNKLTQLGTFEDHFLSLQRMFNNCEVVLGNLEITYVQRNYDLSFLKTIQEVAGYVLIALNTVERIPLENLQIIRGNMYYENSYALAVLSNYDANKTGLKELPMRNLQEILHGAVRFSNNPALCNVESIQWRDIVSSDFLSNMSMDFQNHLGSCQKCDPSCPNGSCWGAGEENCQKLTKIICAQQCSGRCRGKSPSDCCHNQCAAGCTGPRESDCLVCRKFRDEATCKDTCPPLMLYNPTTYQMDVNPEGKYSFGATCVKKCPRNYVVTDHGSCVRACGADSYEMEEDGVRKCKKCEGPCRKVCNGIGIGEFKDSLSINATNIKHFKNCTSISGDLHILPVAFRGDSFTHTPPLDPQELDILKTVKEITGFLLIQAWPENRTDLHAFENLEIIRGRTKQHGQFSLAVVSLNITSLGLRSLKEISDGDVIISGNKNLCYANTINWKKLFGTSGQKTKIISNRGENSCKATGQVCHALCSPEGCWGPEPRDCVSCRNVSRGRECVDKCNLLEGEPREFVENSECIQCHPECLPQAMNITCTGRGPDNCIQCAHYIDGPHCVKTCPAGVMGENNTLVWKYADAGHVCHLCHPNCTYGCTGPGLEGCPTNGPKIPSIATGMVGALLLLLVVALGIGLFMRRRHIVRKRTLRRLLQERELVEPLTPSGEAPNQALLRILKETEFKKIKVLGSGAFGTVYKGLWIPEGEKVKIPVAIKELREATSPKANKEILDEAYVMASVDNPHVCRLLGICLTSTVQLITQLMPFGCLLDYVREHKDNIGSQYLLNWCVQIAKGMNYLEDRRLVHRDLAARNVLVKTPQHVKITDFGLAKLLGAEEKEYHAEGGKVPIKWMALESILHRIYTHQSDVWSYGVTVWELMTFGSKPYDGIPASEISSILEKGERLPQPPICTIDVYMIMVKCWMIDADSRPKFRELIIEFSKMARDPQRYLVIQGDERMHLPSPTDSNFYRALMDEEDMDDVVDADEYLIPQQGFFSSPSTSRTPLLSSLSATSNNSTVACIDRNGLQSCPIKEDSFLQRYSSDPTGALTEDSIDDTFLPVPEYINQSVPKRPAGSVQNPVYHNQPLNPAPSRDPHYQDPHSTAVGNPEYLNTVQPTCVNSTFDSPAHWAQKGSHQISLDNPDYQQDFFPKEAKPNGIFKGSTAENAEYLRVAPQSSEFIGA

Row | SMILES | pIC50
1 | Cc1cccc(Nc2ncnc3ccc(/N=N/N(C)CCN(CCN4CCOCC4)CCN(C)/N=N/c4ccc5ncnc(Nc6cccc(C)c6)c5c4)cc23)c1 [Bis-quinazolinotriazene, 5a] | 6.02
2 | CN(CCN(CCN1CCOCC1)CCN(C)/N=N/c1ccc2ncnc(Nc3cccc(Br)c3)c2c1)/N=N/c1ccc2ncnc(Nc3cccc(Br)c3)c2c1 [Bis-quinazolinotriazene, 5b] | 6.92
3 | CN(CCN(CCN1CCOCC1)CCN(C)/N=N/c1ccc2ncnc(Nc3cccc(Cl)c3)c2c1)/N=N/c1ccc2ncnc(Nc3cccc(Cl)c3)c2c1 [Bis-quinazolinotriazene, 5c] | 6.82
